Data on five compounds can be found in patent US6149912A (priority 1998, dated 2000).

Molecules are shown by their SMILES. Like-named read-outs stand apart in the source and are kept apart here.

The test system of series [1] is S. typhimurium SL1344. It counts as in vivo, Salmonella typhimurium (in CF-1 mice). To be noted: for protective activity against bacterial infection (in words): glycoalkaloid vs aglycon, 8 LD50 i.p.; for survival, illness, weight loss and infection after multiple treatment (in words): multiple i.p. treatment, 5 days after infection / 12 day observation; for animals protected against massive doses: single or multiple injections, 25 LD50 i.p.

Series [2] can be described thus: LD50 (acute toxicity) in mice. The conditions noted are these: mouse, in vivo, 0.03-0.3 mg/kg vs LD50 42 mg/kg, read-out: effective dose relative to LD50 (times lower).
The conditions of series [3]: in vivo; cited from earlier work.
The next series has as its system mice. To be noted: cited from earlier work.
Series [4] concerns S. typhimurium SL1344. The arrangement: species or system Salmonella typhimurium (in CF-1 mice). The conditions noted are these: mouse, in vivo.
The subject of the next series is S. typhimurium. To be noted: mouse, in vivo; cited from earlier work.
Setting [5] is: solanine 1 μg, solanidine or diosgenin 0.5 μg/mouse, inguinal pocket, 5 days before i.p. challenge (1.2 × 10^3 CFU, 8 LD50), 5 days post challenge.
[6] abbreviates: solanine 1 μg, solanidine or diosgenin 0.5 μg/mouse, inguinal pocket, 5 days before i.p. challenge (8 LD50), 5 days post challenge.
[7] abbreviates: 1 μg (or 0.5 μg + 0.5 μg) i.p. 3 times every other day before i.p. challenge (3.5 × 10^3 CFU, 25 LD50), 5 days post challenge.
Where [8] appears, read: 1 μg (or 0.5 μg + 0.5 μg) i.p. 3 times every other day before i.p. challenge (25 LD50), 5 days post challenge, p < 0.001 vs control.
Where [9] appears, read: single 1 μg dose five days prior to challenge with 25 LD50.

Turning to `C[C@@H]1CC[C@@]2(OC1)O[C@H]1C[C@H]3[C@@H]4CC=C5C[C@@H](O)CC[C@]5(C)[C@H]4CC[C@]3(C)[C@H]1[C@@H]2C` [diosgenin, reference compound], in the series with S. typhimurium SL1344 [1], the “protective activity against bacterial infection (in words)” value (“protective activity” for short) is reported as “Neither solanidine nor diosgenin possessed any protective activity”. In addition, the Survival rate with S. typhimurium SL1344 [1] (setting [5]) is reported as 4/10. Moreover, in the series with S. typhimurium SL1344 [1] (setting [6]), the “Liver Culture” value was 8.5 ± 3.3 CFU/500 mg × 10^6 and the “Spleen Culture” value is on record as 4.8 ± 1.8 CFU/100 mg × 10^6.
Take `C[C@H]1CC[C@@H]2[C@@H](C)[C@H]3[C@H](C[C@H]4[C@@H]5CC=C6C[C@@H](O[C@@H]7O[C@H](CO)[C@@H](O[C@@H]8O[C@@H](C)[C@H](O)[C@@H](O)[C@H]8O)[C@H](O)[C@H]7O[C@@H]7O[C@@H](C)[C@H](O)[C@@H](O)[C@H]7O)CC[C@]6(C)[C@H]5CC[C@]34C)N2C1` [chaconine]: the therapeutic index (LD50 / effective dose) in series [2] was 100 to 1000. For the same compound, the poisoning result in series [3] was “can cause poisoning”. For the same compound, the median lethal dose (LD50) was 42 mg/kg with mice and 40 to 50 mg/kg in the series on mice (listed as Chaconine). Besides, the Survival rate is reported as 8/8 with S. typhimurium SL1344 [1] (setting [7]) and around 75% in the series on S. typhimurium SL1344 [1] (setting [9]). Moreover, the “Liver Culture” value in the series on S. typhimurium SL1344 [1] (setting [8]) worked out at 0.12 ± 0.09 CFU/500 mg × 10^6. In the series on S. typhimurium SL1344 [1] (setting [8]), the “Spleen Culture” value was 0.03 ± 0.01 CFU/100 mg × 10^6. In addition, in the series on S. typhimurium SL1344 [1] (25 LD50), the “survival, illness, weight loss and infection after multiple treatment (in words)” value is “no signs of illness or weight loss during a 12 day observation period”. Besides, the “animals protected against massive doses” value with S. typhimurium SL1344 [1] was “sixty to a hundred percent of the animals were protected”.
As for `C[C@H]1CC[C@@H]2[C@@H](C)[C@H]3[C@H](C[C@H]4[C@@H]5CC=C6C[C@@H](O[C@@H]7O[C@H](CO)[C@H](O)[C@H](O[C@@H]8O[C@H](CO)[C@@H](O)[C@H](O)[C@H]8O)[C@H]7O[C@@H]7O[C@@H](C)[C@H](O)[C@@H](O)[C@H]7O)CC[C@]6(C)[C@H]5CC[C@]34C)N2C1` [solanine], the poisoning result in series [3] is on record as “can cause poisoning”. The LD50 is 42 mg/kg in the series on mice and 40 to 50 mg/kg in the series with mice (listed as Solanine). In addition, in the series on S. typhimurium SL1344 [4], the “Fecal Culture” value is on record as 20.0 ± 3.5. The entries for the “Liver Culture” value in the series on S. typhimurium SL1344 [4], in the series on S. typhimurium SL1344 [1] (setting [8]) and in the series with S. typhimurium SL1344 [1] (setting [6]) were 0.3 ± 0.1, 0.08 ± 0.07 CFU/500 mg × 10^6 and 0.8 ± 0.5 CFU/500 mg × 10^6, respectively. Moreover, the “Spleen Culture” value in the series with S. typhimurium SL1344 [4] is listed as 2.0 ± 0.2; with S. typhimurium SL1344 [1] (setting [8]), 0.08 ± 0.02 CFU/100 mg × 10^6; in the series on S. typhimurium SL1344 [1] (setting [6]) it was 0.8 ± 0.5 CFU/100 mg × 10^6. The Survival rate in the series on S. typhimurium SL1344 [4] is given as 5/5; with S. typhimurium SL1344 [1] (setting [7]) it was 8/8; in the series with S. typhimurium SL1344 [1] (setting [9]), “approximately 40%”; in the series on S. typhimurium SL1344 [1] (setting [5]) it was 9/10. In the series with S. typhimurium SL1344 [1], the “protective activity” value was “only solanine was able to effectively protect mice against the bacterial infection”. Besides, the “survival, illness, weight loss and infection after multiple treatment (in words)” value with S. typhimurium SL1344 [1] (25 LD50) is recorded as “no signs of illness or weight loss during a 12 day observation period”. The “animals with enhanced resistance to infection (FIG. 1)” value with S. typhimurium SL1344 [1] (single 0.1, 1.0 or 10.0 μg, challenge (25 LD50) 1, 7 or 14 days later) is on record as 40-70%. Besides, the “animals protected against massive doses” value in the series on S. typhimurium SL1344 [1] is “sixty to a hundred percent of the animals were protected”. Also, the “duration of enhanced host resistance” value in the series on S. typhimurium SL1344 [1] (single treatment, 1.0 and 10.0 μg, 25 LD50) is reported as “at least 2 weeks”.
`CC(=O)N[C@H]1C(O)O[C@H](CO)[C@@H](O)[C@@H]1O[C@H](C)C(=O)N[C@@H](C)C(=O)N[C@H](CCC(=O)O)C(N)=O` (some centres unmarked) [muramyldipeptide]: the mice protected with S. typhimurium is reported as 50%.
Turning to `C[C@H]1CC[C@@H]2[C@@H](C)[C@H]3[C@H](C[C@H]4[C@@H]5CC=C6C[C@@H](O)CC[C@]6(C)[C@H]5CC[C@]34C)N2C1` [solanidine, reference compound], the “protective activity” value in the series on S. typhimurium SL1344 [1] was “Neither solanidine nor diosgenin possessed any protective activity”. The Survival rate in the series on S. typhimurium SL1344 [1] (setting [5]) is reported as 3/10. Also, in the series on S. typhimurium SL1344 [1] (setting [6]), the “Liver Culture” value came to 5.3 ± 2.4 CFU/500 mg × 10^6 and the “Spleen Culture” value came to 1.7 ± 0.6 CFU/100 mg × 10^6.
